Assays:
[1] = 4-MMPPO content after recrystallization using acidified solvent system (Example 5); format: physicochemical; details: 1% (v/v) concentrated aqueous HCl added to the recrystallization mixture
Protocol: Crude tolperisone was dissolved in an 85:15 (v/v) mixture of 2-butanone (MEK) and isopropanol, accompanied by addition of 1% HCl under reflux for 12 hours. The temperature was decreased to 80° C. and the solution filtered while hot. The solution was cooled to 5° C. and stirred for 7 h at 5° C.
The crystalline precipitate was separated by filtering, washed with isopropanol, and subsequently dried in vacuo at 45 to 85° C., with lower drying temperatures being preferred.
When 1% (v/v) concentrated aqueous HCl was added to the recrystallization mixture, 4-MMPPO levels dropped below 6.6 ppm in the final recrystallized tolperisone product.

[2] = 4-MMPPO content after standard single recrystallization of tolperisone (Example 2); format: physicochemical
Protocol: All samples used in the analytical sequence were prepared for analysis as follows. Sample were homogenized if necessary (e.g., tablets) and weighed. For each tolperisone sample, approximately 20 mg of sample was added into a 20 mL flask. 20 mL of 50 mM HCl in MeOH was added to the flask, which was then placed in an ultrasonic bath for about 5 minutes. The contents of the flask were mixed on a vortexer for about 20 seconds. In instances in which the tolperisone sample had initially been in tablet form, the solution was then centrifuged at 4000 rpm for 2 minutes. 200 μL of the sample was then transferred into a small conical centrifuge vial. 20 μL of an internal standard solution containing deuterated 4-MMPPO, 200 μL of buffer at pH 1, and 0.4 mL of diisopropyl ether (DIPE) were added to the vial. The sample was then extracted by vortexing with a DVX-2500 multi-tube vortexer (2100 rpm) for about 2 minutes (cycle: 5 seconds run, 1 second pause time) and centrifugation (phase separation) at 4000 rpm for 2 minutes. 150 μL of 50 mM HCl in MeOH/DMSO (½) was added into empty designated conical autosampler vials. After centrifugation, 100 μL of supernatant was transferred into these conical autosampler vials. The vials were crimped and vortexed with a DVX-2500 multi-tube vortexer (2100 rpm) for about 1 minute. […]

For `Cc1ccc(C(=O)C(C)CN2CCCCC2)cc1` (stereo not drawn) [tolperisone, 2-methyl-1-(4-methylphenyl)-3-(piperidinyl)-1-propanone], the “4-MMPPO levels in the final recrystallized tolperisone product” value [1] was “below 6.6 ppm”, the “4-MMPPO content of recrystallized product” value ([2]; ppm as printed) was 1400 ppm and the “4-MMPPO content, subsequent production batches” value ([2]; subsequent production batches) was under 0.05%.
